SMILES strings stand for the structures. Values joined by “and” are separate entries in the source; they are usually repeats but may differ in a detail not shown here. Equal values may be shown once. Read-outs that look alike come from different tables or passages of the source.

In test [1] the test system is SARS-CoV-2 TY8-612/β. The test can be described thus: microbe, parasite or virus in culture. The test is classed as cell-based.
Test [2] deals with SARS-CoV-2 5356/κ. The experiment in a line: microbe, parasite or virus in culture. The class given is cell-based.
Test [3] has as its system SARS-CoV-2 K1734/δ. The test can be described thus: microbe, parasite or virus in culture. The test is classed as cell-based.
Test [4] has as its system SARS-CoV-2 QHN001/α. The experiment in a line: microbe, parasite or virus in culture. The class given is cell-based.
Test [5] concerns SARS-CoV-2 TY7-501/γ. The test can be described thus: microbe, parasite or virus in culture. The class given is cell-based.
The test system of test [6] is SARS-CoV-2 Delta, BA.1 and BA.2 variants. More on the design: species or system hACE2 knock-in mice. Particulars: mouse, in vivo, ip.
For test [7] the test system is unchanged. Further details: species or system hACE2 knock-in mice. Particulars: mouse, in vivo.
Test [8] relates to SARS-CoV-2^WK-521. The experiment in a line: microbe, parasite or virus in culture. Particulars: read-out: EC50 in cell-based assays. The test is classed as cell-based.
The target of test [9] is Glycine-added M^pro (Severe acute respiratory syndrome coronavirus 2, UniProt P0DTD1).
Setting [10] is: read-out: EC50 β, individual assays.
Setting [11] is: read-out: EC50 κ, individual assays.
[12] abbreviates: read-out: EC50 δ, individual assays.
Where [13] appears, read: read-out: EC50 α, individual assays.
The mark [14] stands for this setting: read-out: EC50 γ, individual assays.
Setting [15] is: read-out: EC50 against TY8-612/β.
Where [16] appears, read: read-out: EC50 against QHN001/α.
Where [17] appears, read: read-out: EC50 against Y7-501/γ.

As to `CC(C)(C)[C@H](NC(=O)C(F)(F)F)C(=O)N1C[C@H]2[C@@H]([C@H]1C(=O)N[C@H](C#N)C[C@@H]1CCNC1=O)C2(C)C` [Nirmatrelvir, reference compound], the EC50 is 1.5 ± 0.24 µM in test [1] (Severe acute respiratory syndrome coronavirus 2, Vero C1008, read-out: EC50 against TY8-612/β); 1.5 µM in test [1] (Severe acute respiratory syndrome coronavirus 2, Vero C1008, read-out: EC50 β, Average); 1.56 µM in [1] (Severe acute respiratory syndrome coronavirus 2, Vero C1008, read-out: EC50 β, individual assays); 1.7 µM and 1.23 µM in test [1] (setting [10]); 1.66 ± 0.606 µM in test [2] (Severe acute respiratory syndrome coronavirus 2, Vero C1008, read-out: EC50 against 5356/k); 1.66 µM in test [2] (Severe acute respiratory syndrome coronavirus 2, Vero C1008, read-out: EC50 κ, Average). In addition, the EC50 was 1.65 µM and 2.27 µM and 1.06 µM in test [2] (setting [11]); 1.5 ± 0.078 µM in test [3] (Severe acute respiratory syndrome coronavirus 2, Vero C1008, read-out: EC50 against K1734/δ); 1.51 µM in test [3] (Severe acute respiratory syndrome coronavirus 2, Vero C1008, read-out: EC50 δ, individual assays); 1.42 µM and 1.57 µM in test [3] (setting [12]); 1.98 ± 0.559 µM in test [4] (Severe acute respiratory syndrome coronavirus 2, Vero C1008, read-out: EC50 against QHN001/α); 1.98 µM in [4] (Severe acute respiratory syndrome coronavirus 2, Vero C1008, read-out: EC50 α, Average). Moreover, the EC50 was 2.54 µM in [4] (Severe acute respiratory syndrome coronavirus 2, Vero C1008, read-out: EC50 α, individual assays); 1.42 µM in [4] (setting [13]); 2.49 ± 0.292 µM in [5] (Severe acute respiratory syndrome coronavirus 2, Vero C1008, read-out: EC50 against Y7-501/γ); 2.49 µM in [5] (Severe acute respiratory syndrome coronavirus 2, Vero C1008, read-out: EC50 γ, Average); 2.5 µM in test [5] (Severe acute respiratory syndrome coronavirus 2, Vero C1008, read-out: EC50 γ, individual assays); 2.2 µM and 2.78 µM in test [5] (setting [14]).
For the compound `CC(C)(C)[C@H](NC(=O)C(F)(F)F)C(=O)N1C[C@H]2[C@@H]([C@H]1C(=O)N[C@@H](C[C@@H]1CCNC1=O)C(=O)c1nc3c(F)cccc3s1)C2(C)C` [TKB245], the “Effect on lung virus titers (in words)” value in test [6] was “considerably reduced titers of both variants in lung”. Also, the EC50 in test [1] (setting [15]) was 0.028 ± 0.009 µM; in test [1] (read-out: EC50 β, Average), 0.0284 µM; in test [1] (setting [10]) it was 0.019 µM and 0.036 µM; in test [2] (read-out: EC50 κ, Average), 0.0206 µM; in test [2] (setting [11]), 0.0192 µM and 0.0224 µM; in test [3] (read-out: EC50 δ, Average) it was 0.0304 µM. Also, the EC50 in test [3] (setting [12]) is 0.0276 µM and 0.0336 µM; in test [4] (setting [16]), 0.042 ± 0.042 µM; in test [4] (read-out: EC50 α, Average) it was 0.042 µM; in test [4] (setting [13]) it was 0.09 µM and 0.02 µM and 0.0158 µM; in [8] it was roughly 0.03 µM; in test [5] (setting [17]) it was 0.056 ± 0.045 µM. The EC50 is 0.0561 µM in test [5] (read-out: EC50 γ, Average); 0.01 µM and 0.0582 µM and 0.1 µM in test [5] (setting [14]). Further, in [7], the “Chest micro-CT images vs vehicle control” value is reported as “No relevant differences were”. In addition, the “Lung immunohistochemistry, SARS-CoV-2 nucleocapsid protein vs vehicle group” value in test [7] is recorded as “no relevant change in number”.
Turning to `CC(C)(C)[C@H](NC(=O)C(F)(F)F)C(=O)N1C[C@H]2[C@@H]([C@H]1C(=S)N[C@@H](C[C@@H]1CCNC1=O)C(=O)c1nc3c(F)cccc3s1)C2(C)C` [TKB248], in [6], the “Effect on lung virus titers (in words)” value was “exerted comparable efficacy against both Omicron BA.1 and BA.2 variants”. Moreover, the EC50 in test [1] (setting [15]) is 0.287 ± 0.005 µM; in test [1] (read-out: EC50 β, Average) it was 0.288 µM; in test [1] (setting [10]), 0.29 µM and 0.291 µM and 0.282 µM; in [2] (read-out: EC50 against 5356/k), 0.18 ± 0.035 µM; in test [2] (read-out: EC50 κ, Average) it was 0.18 µM; in [2] (setting [11]) it was 0.215 µM and 0.145 µM. In addition, the EC50 in test [3] (read-out: EC50 against K1734/δ) is 0.273 ± 0.036 µM; in test [3] (read-out: EC50 δ, Average) it was 0.274 µM; in test [3] (setting [12]), 0.27 µM and 0.311 µM and 0.24 µM; in test [4] (setting [16]) it was 0.3 ± 0.001 µM; in [4] (read-out: EC50 α, Average), 0.3 µM; in [4] (setting [13]) it was 0.3 µM and 0.299 µM. For the same compound, the EC50 in test [5] (setting [17]) is 0.228 ± 0.061 µM; in test [5] (read-out: EC50 γ, Average) it was 0.228 µM; in test [5] (setting [14]), 0.288 µM and 0.165 µM. Also, the “Peak ratio, Dimer-1X compound” value in test [9] amounted to 9.9%. Besides, the “Peak ratio, Dimer-2X compound” value in test [9] was found to be 28.4%.

Source of the values: paper PMC9958325 (Nature Communications, 2023).
